Measured values from patent publication US4925650A, “Technetium -99m complex for examining the renal function” (Mallinckrodt, Inc., priority 1988, dated 1990).

Columns and labels:
[1] = cited from earlier work; for mode of elimination / renal secretion (in words): in vivo
[2] = Liver accumulation in a human being after 40 minutes; assay type: in vivo; details: 0.5 mCi intravenously
Procedure: The liver accumulation is determined after 40 minutes. For the tested Tc99m-LL-isomer it amounts to 2.9%, for Tc99m-MAG3 it amounts to 4.0% of the injected dose.

Molecule: O=C(O)CNC(=O)c1ccccc1[131I] [iodo-131-Hippuran]
- mode of elimination / renal secretion (in words) [1]: secreted actively tubularly

Molecule: Tc99m-diethylene triamine pentaacetic acid [DTPA]
- clearance ([1]; chelate of DTPA): 100 ml of blood plasma per minute
- mode of elimination / renal secretion (in words) [1]: eliminated entirely or substantially entirely by glomerular filtration

Molecule: Tc-99m-mercaptoacetyltriglycine [Tc99m-MAG3]
- liver accumulation [2]: 4.0 % of the injected dose
- mode of elimination / renal secretion (in words) [1]: secreted by the kidneys selectively and approximately equally rapidly as iodo-Hippuran
